One assay deals with T1, OATP1B1 (Homo sapiens, UniProt Q9Y6L6).
T1 construct: host or cells: HEK293
T1 sequence (Q9Y6L6 1-691): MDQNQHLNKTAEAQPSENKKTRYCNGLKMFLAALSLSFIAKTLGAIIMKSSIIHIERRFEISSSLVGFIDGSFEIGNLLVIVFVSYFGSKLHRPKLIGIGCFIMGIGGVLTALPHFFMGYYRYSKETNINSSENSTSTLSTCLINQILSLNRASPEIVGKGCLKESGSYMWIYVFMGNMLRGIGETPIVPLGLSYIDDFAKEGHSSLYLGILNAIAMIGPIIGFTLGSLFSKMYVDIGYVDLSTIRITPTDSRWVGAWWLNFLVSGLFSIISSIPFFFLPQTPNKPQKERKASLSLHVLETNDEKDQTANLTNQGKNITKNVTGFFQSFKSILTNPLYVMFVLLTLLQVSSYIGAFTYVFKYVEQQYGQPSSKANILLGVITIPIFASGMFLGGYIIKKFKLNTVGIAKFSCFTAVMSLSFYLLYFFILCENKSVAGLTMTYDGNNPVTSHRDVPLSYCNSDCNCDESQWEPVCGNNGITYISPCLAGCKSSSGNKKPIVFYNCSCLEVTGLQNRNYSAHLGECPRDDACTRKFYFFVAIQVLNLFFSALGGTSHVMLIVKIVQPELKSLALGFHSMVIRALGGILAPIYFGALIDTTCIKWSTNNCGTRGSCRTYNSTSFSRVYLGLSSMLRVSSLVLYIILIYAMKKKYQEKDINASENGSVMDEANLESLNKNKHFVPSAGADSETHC
The assay is described as follows: Inhibition of tracer uptake in OATP1B1-expressing cells. Type of assay: in vitro ADME. The settings on record: OATP1B1, tracer [3H]E2G 0.1 µM. The protocol:
For the SLC transporter experiments, Mock Flp-in-293 cells (Flp/mock), OAT1-expressing Flp-in-293 cells (Flp/OAT1), mock HEK293 cells (HEK/mock), and OATP1B3-expressing HEK293 cells (HEK/OATP1B3) were obtained from Kanazawa University (Ishikawa, Japan). Briefly, Flp-in-293 and HEK293 cells were transfected with the appropriate plasmid DNA and selected using antibiotics (hygromycin or G-418). All cell lines were cultured in DMEM (Life Technologies Japan) supplemented with 10% (v/v) fetal bovine serum (American Type Culture Collection) and antibiotics (100 U/mL penicillin and 100 μg/mL streptomycin (Life Technologies Japan) for mock cells, 0.2 mg/mL hygromycin for Flp/OAT1 cells, and 1.2 mg/mL G-418 (Roche Diagnostics K.K., Tokyo, Japan) for HEK/OATP1B3 cells) at 37 °C under an atmosphere containing 5% CO2. […]
The experiments were performed as described previously, with minor modifications. […] The cells were lysed in 0.3 mL of 0.1N NaOH at room temperature, after which the radioactivity of each aliquot was measured as described above. The protein concentration of the cell lysate was determined with a VersaMax microplate reader (Molecular Devices Japan K.K., Osaka, Japan) or SpectraMax i3x (Molecular Devices Japan K.K.; only for OATP1B1) using a BCA Protein Assay Kit (Thermo Fisher Scientific, Kanagawa, Japan). Tracer uptake was expressed as pmol/mg protein. […]

For the next assay, the target named is T2, OCT2 (Homo sapiens, UniProt O15244).
T2 construct: host or cells: HEK293
T2 sequence (O15244 1-555): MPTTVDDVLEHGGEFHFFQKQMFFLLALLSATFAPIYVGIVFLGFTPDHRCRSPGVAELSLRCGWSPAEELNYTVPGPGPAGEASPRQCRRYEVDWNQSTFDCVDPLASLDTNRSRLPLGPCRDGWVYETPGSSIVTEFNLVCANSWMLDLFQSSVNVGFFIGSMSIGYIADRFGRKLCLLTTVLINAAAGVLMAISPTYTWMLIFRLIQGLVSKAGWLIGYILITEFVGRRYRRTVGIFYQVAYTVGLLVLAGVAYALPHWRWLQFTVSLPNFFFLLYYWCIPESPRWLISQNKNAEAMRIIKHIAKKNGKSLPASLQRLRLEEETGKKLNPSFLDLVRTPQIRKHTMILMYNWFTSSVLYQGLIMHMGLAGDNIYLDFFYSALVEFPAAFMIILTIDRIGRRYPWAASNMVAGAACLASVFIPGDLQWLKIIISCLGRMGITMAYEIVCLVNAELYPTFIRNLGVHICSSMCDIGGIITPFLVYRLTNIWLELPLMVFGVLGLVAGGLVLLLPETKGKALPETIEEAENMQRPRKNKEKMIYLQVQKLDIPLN
Nature of the assay: Inhibition of tracer uptake in OCT2-expressing cells. The settings on record: OCT2, tracer [14C]metformin 10 µM. The assay is classed as in vitro ADME.

The structures appear in SMILES notation.

As a reminder, the IC50 is the concentration needed to halve the response being measured. A lower IC50 goes with inhibition by little substance. For `N[C@]1(C(=O)O)C[C@@H](F)C1` [fluciclovine], the half-maximal inhibitory concentration (IC50) was 5.41 ± 2.49 mM against OATP1B1 and 8.95 ± 1.96 mM against OCT2.

For the origin of these results see PMC5085761 (International Journal of Molecular Sciences, 2016).
